Experimental findings from paper PMC11821258 (Molecules, 2025) are described below.

SMILES strings stand for the structures.

The first test relates to human biphenotypic B myelomonocytic leukemia MV4-11. Put plainly: Antiproliferative activity, MTT assay, 72 h. It counts as cell-based. As to conditions: Homo sapiens; MV4-11, 72 h, MTT; read-out: IC50. As for the experimental part:
(§1) The tested compounds were dissolved in DMSO (dimethyl sulfoxide) to a concentration of 10 mg/mL and then were diluted in the culture medium to reach the final concentrations. The cells were plated in 384-well plates at a density of 1 × 10^3 or 2 × 10^3 (MCF-10A) cells per well (Greiner Bio One, Kremsmünster, Austria) and in 96-well plates (MV4-11 cell; Sarstedt, Nümbrecht, Germany) at a density of 5 × 10^3 cells per well. After 24 h of incubation, the tested compounds were added at concentrations in the range of 100–0.03 µg/mL and, after the next 72 h of exposure to tested agents, the cytotoxic effect of all agents was examined using the MTT (MV4-11) or SRB assay, described previously. The values of IC50 (inhibitory concentration 50%) were calculated separately for each experiment (repeated 3–5 times) using the Prolab-3 system which is based on Cheburator 0.4 software. Doxorubicin was applied as a reference drug. The IC50 values in µg/mL were calculated to µM.
This assay was used against MV4-11 leukemia cells and was performed after 72 h of exposure of the tested agents to the cells. For each well, 20 µL of the MTT [3-(4,5-dimethylthiazol-2-yl)-2,5-diphenyl tetrazolium bromide] solution (5 mg/mL, Merck, Darmstadt, Germany) was added. After the incubation time (4 h at 37 °C), 80 µL of the lysing buffer was added to each well (mixture of 225 mL of DMF (dimethylformamide) Avantor, Poland; 67.5 g of SDS, Merck, Darmstadt, Germany; and 275 mL of distilled water). After the next 24 h, the absorbance of the samples was measured at a 570 nm wavelength on a Synergy H4 photometer (BioTek Instruments, Winooski, VT, USA). The absorbance of wells without the cells was the background.
(Formazan colour is commonly taken as a measure of viable cells.)
One may read the IC50 as the midpoint of a concentration-inhibition curve. As for `C#CCCC(=O)OC[C@]12CC[C@@H](C(=C)C)C1C1CCC3[C@@]4(C)CC[C@H](OC(=O)CC(C)(C)C(=O)O)C(C)(C)C4CC[C@@]3(C)[C@]1(C)CC2` (some centres unmarked) [Compound 5b], the 50% inhibitory concentration (IC50) came to 4.76 ± 0.92 µM.

The same test, now with this note: IC50 MCF-10A / IC50 MV4-11.
For `C#CCCC(=O)OC[C@]12CC[C@@H](C(=C)C)C1C1CCC3[C@@]4(C)CC[C@H](OC(=O)CC(C)(C)C(=O)O)C(C)(C)C4CC[C@@]3(C)[C@]1(C)CC2` (some centres unmarked) [Compound 5b], the SI turned out to be 7.10.

The next test deals with human breast cancer MCF-7. Put plainly: Antiproliferative activity, SRB assay, 72 h. It counts as cell-based. As to conditions: Homo sapiens, MCF7; MCF-7, 72 h, SRB; read-out: IC50. The protocol:
as §1
(§2) The cytotoxicity assay was performed after the cultured cells were exposed to the tested agents for 72 h using the authomatic Washer dyspenser EL406, BioTek. At the first step, the washer dispenser collected 40 µL of cultured medium from each wells, and then the cells were fixed by gently layering 20 µL per well of cold 25% trichloroacetic acid to each well. The incubation time was 40 min and then the plates were washed with tap water. The cells were stained with 20 µL per well of 0.1% sulforhodamine B (SRB, Merck, Darmstadt, Germany) for 30 min. Unbound sulforhodamine B was removed by washing it with 1% acetic acid. The protein-bound dye was extracted in 30 min using 70 µL per well of 10 mM unbuffered Tris base (Merck, Darmstadt, Germany). The absorbance (at 540 nm) was measured on a Synergy H4 photometer (BioTek Instruments, Winooski, VT, USA). The absorbance of the wells without the cells was the background.
For orientation: Sulforhodamine B stains cellular protein and so reports cell mass.
As for `C#CCCC(=O)OC[C@]12CC[C@@H](C(=C)C)C1C1CCC3[C@@]4(C)CC[C@H](OC(=O)CC(C)(C)C(=O)O)C(C)(C)C4CC[C@@]3(C)[C@]1(C)CC2` (some centres unmarked) [Compound 5b], the IC50 was determined as 12.3 ± 2.92 µM.

Staying with this test, now noted: IC50 MCF-10A / IC50 MCF-7.
Consider `C#CCCC(=O)OC[C@]12CC[C@@H](C(=C)C)C1C1CCC3[C@@]4(C)CC[C@H](OC(=O)CC(C)(C)C(=O)O)C(C)(C)C4CC[C@@]3(C)[C@]1(C)CC2` (some centres unmarked) [Compound 5b], for which the SI is reported as 2.75.

The subject of a further test is human colon cancer HCT116 cells. Kind of test: Antiproliferative activity, SRB assay, 72 h. It counts as cell-based. As to conditions: Homo sapiens, HCT-116; HCT116, 72 h, SRB; read-out: IC50. The protocol:
as §1, §2
Regarding `C#CCCC(=O)OC[C@]12CC[C@@H](C(=C)C)C1C1CCC3[C@@]4(C)CC[C@H](OC(=O)CC(C)(C)C(=O)O)C(C)(C)C4CC[C@@]3(C)[C@]1(C)CC2` (some centres unmarked) [Compound 5b], the IC50 is 9.06 ± 2.92 µM.

Still in this test, the particulars now being: IC50 MCF-10A / IC50 HCT116.
On to `C#CCCC(=O)OC[C@]12CC[C@@H](C(=C)C)C1C1CCC3[C@@]4(C)CC[C@H](OC(=O)CC(C)(C)C(=O)O)C(C)(C)C4CC[C@@]3(C)[C@]1(C)CC2` (some centres unmarked) [Compound 5b], for which the SI is listed as 3.73.

Another test concerns human lung carcinoma A549. Kind of test: Antiproliferative activity, SRB assay, 72 h. Conditions: Homo sapiens; A549, 72 h, SRB; read-out: IC50. The class given is cell-based. As for the experimental part: as §1, §2
Take `C#CCCC(=O)OC[C@]12CC[C@@H](C(=C)C)C1C1CCC3[C@@]4(C)CC[C@H](OC(=O)CC(C)(C)C(=O)O)C(C)(C)C4CC[C@@]3(C)[C@]1(C)CC2` (some centres unmarked) [Compound 5b]: the IC50 worked out at 4.15 ± 0.92 µM.

Still in this test, the particulars now being: IC50 MCF-10A / IC50 A549.
Take `C#CCCC(=O)OC[C@]12CC[C@@H](C(=C)C)C1C1CCC3[C@@]4(C)CC[C@H](OC(=O)CC(C)(C)C(=O)O)C(C)(C)C4CC[C@@]3(C)[C@]1(C)CC2` (some centres unmarked) [Compound 5b]: the SI is listed as 8.15.

The test system of the next test is human melanoma Hs294T cells. Kind of test: Antiproliferative activity, SRB assay, 72 h. It counts as cell-based. Conditions: Homo sapiens, Hs 294T; Hs249T (so in the source), 72 h, SRB; read-out: IC50. The protocol:
as §1, §2
As to `C#CCCC(=O)OC[C@]12CC[C@@H](C(=C)C)C1C1CCC3[C@@]4(C)CC[C@H](OC(=O)CC(C)(C)C(=O)O)C(C)(C)C4CC[C@@]3(C)[C@]1(C)CC2` (some centres unmarked) [Compound 5b], the IC50 was determined as 16.1 ± 4.76 µM.

The same test, now with this note: IC50 MCF-10A / IC50 Hs249T (so in the source).
For `C#CCCC(=O)OC[C@]12CC[C@@H](C(=C)C)C1C1CCC3[C@@]4(C)CC[C@H](OC(=O)CC(C)(C)C(=O)O)C(C)(C)C4CC[C@@]3(C)[C@]1(C)CC2` (some centres unmarked) [Compound 5b], the SI was determined as 2.10.

Another test concerns human pancreas cancer MiaPaca-2 cells. Put plainly: Antiproliferative activity, SRB assay, 72 h. It counts as cell-based. As to conditions: Homo sapiens, MIA PaCa-2; MiaPaca-1 (so in the source), 72 h, SRB; read-out: IC50. As for the experimental part: as §1, §2
As for `C#CCCC(=O)OC[C@]12CC[C@@H](C(=C)C)C1C1CCC3[C@@]4(C)CC[C@H](OC(=O)CC(C)(C)C(=O)O)C(C)(C)C4CC[C@@]3(C)[C@]1(C)CC2` (some centres unmarked) [Compound 5b], the half-inhibitory concentration (IC50) turned out to be 28.4 ± 3.23 µM.

The same test, now with this note: IC50 MCF-10A / IC50 MiaPaca-1 (so in the source).
As for `C#CCCC(=O)OC[C@]12CC[C@@H](C(=C)C)C1C1CCC3[C@@]4(C)CC[C@H](OC(=O)CC(C)(C)C(=O)O)C(C)(C)C4CC[C@@]3(C)[C@]1(C)CC2` (some centres unmarked) [Compound 5b], the SI is 1.19.

The next test deals with human prostate adenocarcinoma PC-3. Kind of test: Antiproliferative activity, SRB assay, 72 h. It counts as cell-based. As to conditions: Homo sapiens; PC-3, 72 h, SRB; read-out: IC50. As for the experimental part:
as §1, §2
For `C#CCCC(=O)OC[C@]12CC[C@@H](C(=C)C)C1C1CCC3[C@@]4(C)CC[C@H](OC(=O)CC(C)(C)C(=O)O)C(C)(C)C4CC[C@@]3(C)[C@]1(C)CC2` (some centres unmarked) [Compound 5b], the IC50 worked out at 21.1 ± 1.54 µM.

Staying with this test, now noted: IC50 MCF-10A / IC50 PC-3.
`C#CCCC(=O)OC[C@]12CC[C@@H](C(=C)C)C1C1CCC3[C@@]4(C)CC[C@H](OC(=O)CC(C)(C)C(=O)O)C(C)(C)C4CC[C@@]3(C)[C@]1(C)CC2` (some centres unmarked) [Compound 5b]: the SI was 1.61.

The next test relates to human normal epithelial cells from the mammary gland (MCF-10A). Kind of test: Cytotoxicity on non-tumorigenic cells, SRB assay, 72 h. It counts as cell-based. Conditions: Homo sapiens, MCF-10A normal cells, SRB, read-out: IC50. As for the experimental part:
as §1, §2
As for `C#CCCC(=O)OC[C@]12CC[C@@H](C(=C)C)C1C1CCC3[C@@]4(C)CC[C@H](OC(=O)CC(C)(C)C(=O)O)C(C)(C)C4CC[C@@]3(C)[C@]1(C)CC2` (some centres unmarked) [Compound 5b], the IC50 turned out to be 33.8 ± 3.38 µM.

A further test concerns MV4-11 cells. Kind of test: Cell cycle analysis by flow cytometry (propidium iodide). It counts as cell-based, human. Conditions: MV4-11, 24 h, about 1.5 × IC50, statistically significant. As for the experimental part: After incubation, the cells were collected and counted with a hemocytometer, and the 5×10^5 cells were washed twice in cold PBS (phosphate-buffered saline) and fixed for 24 h in 70% ethanol at −20 °C. Then, the cells were washed twice in PBS and incubated with 0.5 mL of RNAse (8 μg/mL, Thermo Fisher, Waltham, MA, USA) at 37 °C for 1 h. The cells were stained for 30 min with propidium iodide (final concentration: 50 μg/mL, Merck, Darmstadt, Germany) at 4 °C and the cellular DNA content was analyzed by conducting flow cytometry using a BD LSRFortessa cytometer (BD Bioscience, San Jose, CA, USA). Compounds at each concentration were tested at least three times independently. The obtained results were analyzed using Flowing software 2.5.1 (Cell Imaging Core, Turku Centre for Biotechnology, University of Turku and Åbo Akademi University, Finland).
A general note: Flow cytometry measures light scatter and fluorescence of single cells or particles in a stream.
Consider `C#CCCC(=O)OC[C@]12CC[C@@H](C(=C)C)C1C1CCC3[C@@]4(C)CC[C@H](OC(=O)CC(C)(C)C(=O)O)C(C)(C)C4CC[C@@]3(C)[C@]1(C)CC2` (some centres unmarked) [Compound 5b], for which the “number of cells in the G2/M phase” value is “lowered”.

Still in this test, the particulars now being: MV4-11, 72 h, about 1.5 × IC50.
In the case of `C#CCCC(=O)OC[C@]12CC[C@@H](C(=C)C)C1C1CCC3[C@@]4(C)CC[C@H](OC(=O)CC(C)(C)C(=O)O)C(C)(C)C4CC[C@@]3(C)[C@]1(C)CC2` (some centres unmarked) [Compound 5b], the “number of death cells” value is listed as “increased”.

The same test, now with this note: MV4-11, 72 h, about 1.5 × IC50, statistically significant.
With `C#CCCC(=O)OC[C@]12CC[C@@H](C(=C)C)C1C1CCC3[C@@]4(C)CC[C@H](OC(=O)CC(C)(C)C(=O)O)C(C)(C)C4CC[C@@]3(C)[C@]1(C)CC2` (some centres unmarked) [Compound 5b], the “number of cells in the G2/M and S phases” value is “decreased”.

A further test concerns MV4-11 cells. Put plainly: Apoptosis determination via Annexin V and PI staining. The class given is cell-based, human. Conditions: MV4-11, 72 h. As for the experimental part: Camptothecin at a concentration of 0.05 uM was used as a positive control. After incubation, the cells were collected and counted with a hemocytometer, and 1×10^5 cells were washed twice with PBS. APC-Annexin V (Becton Dickinson, Pharmingen, Franklin Lakes, NJ, USA) was dissolved to the concentration of […] in a binding buffer (10 mM HEPES/NaOH, pH 7.4; 150 mM NaCl; 5 mM KCl; 1 mM MgCl2; and 1.8 mM CaCl2) (HIIET, Wrocław, Poland), and the cells were suspended in 200 µL of this solution. After 15 min of the incubation in the dark at room temperature, 20 µL of propidium iodide (PI) solution (0.02 mg/mL) was added. Data acquisition was performed by conducting flow cytometry using a BD LSRFortessa cytometer (BD Bioscience, San Jose, CA, USA). The compounds were tested at least three times independently. Results were analyzed using Flowing software 2.5.1 (Turku, Finland). […] Double-negative cells were live cells, PI+/Annexin V+ were late apoptotic cells, PI-/Annexin V+ were early apoptotic cells, and PI+/Annexin V- were necrotic cells.
With `C#CCCC(=O)OC[C@]12CC[C@@H](C(=C)C)C1C1CCC3[C@@]4(C)CC[C@H](OC(=O)CC(C)(C)C(=O)O)C(C)(C)C4CC[C@@]3(C)[C@]1(C)CC2` (some centres unmarked) [Compound 5b], the “number of necrotic cells” value was “increased the number of necrotic cells”.

Still in this test, the particulars now being: MV4-11, 72 h, higher concentrations.
With `C#CCCC(=O)OC[C@]12CC[C@@H](C(=C)C)C1C1CCC3[C@@]4(C)CC[C@H](OC(=O)CC(C)(C)C(=O)O)C(C)(C)C4CC[C@@]3(C)[C@]1(C)CC2` (some centres unmarked) [Compound 5b], the induction of apoptosis result is recorded as “induction of apoptosis was observed”.
